# From patent publication US7595345B2, “Vitamin D receptor modulators” (Eli Lilly and Company, priority 2003, dated 2009)
# Columns and labels:
# [1] = biological target: T1, VDR (pGal4-VDR-LBD) (Homo sapiens, UniProt P11473); test: VDR CTF (Caco-2 cell co-transfection assay); assay type: cell-based; conditions: Caco-2 cells, Gal4-responsive reporter pFRLuc; surrogate for calcemic activity
# T1 construct: the receptor expression vector pGal4-VDR-LBD (10 ng); expressed in transfected cells; host or cells: Caco-2 cells
# T1 sequence (P11473 127-423 limits assumed): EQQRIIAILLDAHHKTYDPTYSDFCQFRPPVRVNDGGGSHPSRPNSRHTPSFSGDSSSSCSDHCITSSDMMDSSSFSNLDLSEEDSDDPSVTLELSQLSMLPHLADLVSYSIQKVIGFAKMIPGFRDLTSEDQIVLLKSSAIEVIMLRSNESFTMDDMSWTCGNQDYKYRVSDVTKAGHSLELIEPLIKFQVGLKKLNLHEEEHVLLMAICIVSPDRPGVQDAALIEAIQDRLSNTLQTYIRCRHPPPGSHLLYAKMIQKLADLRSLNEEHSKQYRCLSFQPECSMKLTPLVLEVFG
# Description: 2. The Caco-2 Cell Co-Transfection Assay:
# The Caco-2 cell assay is an indicator for the undesirable condition of hypercalcemia. This co-transfection assay is a surrogate assay for in vivo calcemic activity of VDR ligands. […] Preferred assay results are greater than 1000 nM.
# (2) Materials and Method for the Caco-2 Cell Assay:
# Caco-2 cells, grown in phenol red free, DMEM (Invitrogen, Carlsbad, Calif.) containing 10% charcoal-stripped FCS (Hyclone, Logan, Utah), were transfected with Fugene 6 reagent (Roche Diagnostics, Indianapolis, Ind.). Cells (5000/well) were plated 18 h before transfection in a 96 well plate. The Cells were transfected with Gal4-responsive reporter pFRLuc (150 ng, Stratagene, La Jolla Calif.) and the receptor expression vector pGal4-VDR-LBD (10 ng), along with Fugene 6 reagent (0.2 μl/well). The DNA-Fugene complex was formed by incubating the mixture for 30 min at room temperature. The cells were transfected in triplicate for 5 h, and treated with various concentrations of VDR ligands (form 0.01 nM to 10,000 nM concentration range) 18 h post-transfection. The luciferase activity was quantified using Steady-Glo reagent kit (Promega, Madison, Wis.) as per manufacturer's specifications.
# [2] = Mouse hypercalcemia assay; assay type: in vivo; conditions: female DBF mice, oral gavage for 6 days, serum ionized calcium 6 hours after last dosing
# From the text: 4. The Mouse Hypercalcemia Assay
# (4) Materials and Method for the Mouse Hypercalcemia Assay: […]
# [3] = test system: IL-10 production in PBMCs; test: Human IL-10 induction assay; assay type: cell-based; conditions: PBMC; TPA/PHA treated human PBMCs, IL-10 in supernatant by immunoassay
# From the text: 6. The IL-10 Induction Assay
# This is an in vitro efficacy assay for psoriasis, abscess and adhesion. Psoriasis involves both keratinocytes and immune cells. IL-10 is a unique cytokine because it is anti-inflammatory and immunosuppressive. This assay tells us whether a VDRM is able to function as an agonist in PBMCs (primary blood mononuclear cells) or not. A lower EC50 value is desirable in this assay since a compound with a lower EC50 value will be a better agonist in PBMCs. […] 7. Other Compound Assay Standards An alternative measure of the efficacy of compounds of the invention for treatment of osteoporosis is a numerical ratio calculated as follows: • Dose Threshold needed to induce hypercalcemia • divided by • Dose Threshold needed for bone efficacy An alternative measure of the efficacy of compounds of the invention for treatment of psoriasis is a numerical ratio calculated as follows: • Dose Threshold needed to induce hypercalcemia • divided by • Dose Threshold needed to induce keratinocyte proliferation For the above ratios, Dose Thresholds are determined from dose response curve data. 8. The CaT1 (Calcium Transport Protein 1) Assay The CaT1 Assay is an indicator for the undesirable condition of hypercalcemia. The higher the EC50 values for a compound the less calcemic it will be in vivo. […] Preferred assay results are greater than 1000 nM. Details of the Assay Methods: (1) Materials and Method for RXR-VDR Heterodimerization Assay: Transfection Method:
# (6) Materials and Method for Human IL-10 Induction Assay:
# Isolation of peripheral blood mononuclear cells (PBMCs): • A. Collect 50 ml of human blood and dilute with media, RPMI-1640. • B. Prepare sterile tubes with ficol. • C. Add diluted blood to tubes. • D. Centrifuge. • E. Discard the top layer and collect the cells from middle layer. • F. Divide all cells into four tubes and add media. • G. Centrifuge. • H. Aspirate off media and resuspend. • I. Collect all cells • J. Centrifuge. at 1200 rpm for 10 minutes. • K. Resuspend in RPMI-1640 with 2% FBS and count cells
# Stimulation of PBMC: • L. Prepare TPA in DMSO. • M. Dissolve PHA in water. • N. Plate TPA/PHA treated PBMCs in well plates. • O. Incubate.
# Treatment: • P. Prepare all compound dilutions in plain RPMI-1640 media. • Q. Add diluted compound. • R. Incubate.
# Sample Collection and Assay: • S. Remove all the cells by centrifugation and assay the supernatant for IL-10 by immunoassay. • 1) T. Perform IL-10 assay using anti-human IL-10 antibody coated beads, as described by the manufacturer (Linco Research Inc., St. Charles, Mo.).
# [4] = test system: rat osteocalcin promoter; test: OCN (osteocalcin) promoter assay; assay type: cell-based; conditions: RG-15 (ROS 17/2.8) cells, 48 hr treatment, luciferase
# Description: 3. The OCN (Osteocalcin) Promoter Assay
# The OCN Promoter Assay is an indicator and marker for osteoporosis. Desired assay results are EC50 less than or equal to […]. Preferred assay results are less than […].
# (3) Materials and Method for the OCN Promoter Assay:
# The activation of osteocalcin by VDR ligands was evaluated in a rat osteoblast-like cell line RG-15 (ROS 17/2.8) stably expressing rat osteocalcin promoter fused with luciferase reporter gene. The stable cell lines were established as reported before (Activation of Osteocalcin Transcription involves interaction of protein kinase A- and Protein kinase C-dependent pathways. Boguslawski, G., Hale, L. V., Yu, X.-P., Miles, R. R., Onyia, J. E., Santerre R. F., Chandrasekhar, S. J. Biol. Chem. 275, 999-1006, 2000). Confluent RG-15 cells maintained in DMEM/F-12 medium (3:1) containing 5% FBS, 300 µg/ml G418 and at 37° C. under 5% CO2/95% air atmosphere were trypsinized (0.25% trypsin) and plated into white opaque 96-well cell culture plates (25000 cells/well). After 24 hr, cells (in DMEM/F-12 medium+2% FBS) were treated with various concentrations of compounds, dissolved in DMSO. The final DMSO concentration remained at 0.01% (v/v). After 48 hr treatment, the medium was removed, cells were lysed with 50 µl of lysis buffer (From Luciferase reporter assay system, Roche Diagnostics, Indianapolis, Ind.) and assayed for luciferase activity using the Luciferase Reporter Gene Assay kit from Boehringer Mannheim as per manufacturer's specifications.
Structure (SMILES),EC50 [1] [nM],Mouse Hypercal [2] [µg/kg/day],IC50 [3] [nM],EC50 [4] [nM],"EC50 ([4]; Rattus norvegicus, 48 h) [nM]"
"CCC(CC)(c1ccc(OCC(O)(C(C)C)C(C)C)c(C)c1)c1ccc(C(=O)NCC(=O)O)c(C)c1 [Ex. 4, (4-{1-Ethyl-1-[4-(2-hydroxy-2-isopropyl-3-methyl-butoxy)-3-methyl-phenyl]-propyl}-2-methyl-benzoylamino)-acetic acid]",974,73000,477,27.7,21
"CCC(O)(CC)COc1ccc(C(CC)(CC)c2ccc(C(=O)NCC(=O)O)c(C)c2)cc1C [Ex. 3, (4-{1-ethyl-1-[4-(2-ethyl-2-hydroxy-butoxy)-3-methyl-phenyl]-propyl}-2-methyl-benzoylamino)-acetic acid]",819,1000,718,19.7,16.8
